# Values quoted from earlier work, collected in patent US20100197944A1, “DOCETAXEL PROCESS AND POLYMORPHS” (DR. REDDY'S LABORATORIES LIMITED, priority 2007, published 2010).
# Conditions: compared with anhydrous docetaxel
smiles,measurement,value
"CC(=O)O[C@@]12CO[C@@H]1C[C@H](O)[C@@]1(C)C(=O)[C@H](O)C3=C(C)[C@@H](OC(=O)[C@H](O)[C@@H](NC(=O)OC(C)(C)C)c4ccccc4)C[C@@](O)([C@@H](OC(=O)c4ccccc4)[C@H]21)C3(C)C [Docetaxel trihydrate, 4-acetoxy-2α-benzoyloxy-5β,20-epoxy-1,7β,10β-trihydroxy-9-oxo-tax-11-en-13-α-yl-(2R,3S)-3-tert-butoxycarbonylamino-2-hydroxy-3-phenylpropionate trihydrate]",Stability relative to the anhydrous product,substantially greater stability
